Common to all, as to type: functional
Test [1] relates to PC-12. Put plainly: Neuroprotection against H2O2-induced oxidative damage in rat PC12 cells assessed as early apoptotic cells at 2.5 uM after 24 hrs in presence of H2O2 by annexin V-FITC/propidium iodide staining based flow cytometric analysis (reference value: 29.3%). On the technique in general: A flow cytometer gives signals particle by particle.
Test [2] deals with PC-12. Put plainly: Neuroprotection against H2O2-induced oxidative damage in rat PC12 cells assessed as early apoptotic cells at 10 uM after 24 hrs in presence of H2O2 by annexin V-FITC/propidium iodide staining based flow cytometric analysis (reference value: 29.3%).
The subject of test [3] is PC-12. Put plainly: Neuroprotection against H2O2-induced oxidative damage in rat PC12 cells assessed as intracellular Ca2+ level by measuring mean fluorescence intensity at 10 uM after 24 hrs in presence of H2O2 by Fluo-3/AM staining based flow cytometric analysis (reference value: 51697).
In test [4] the test system is PC-12. Put plainly: Neuroprotection against H2O2-induced oxidative damage in rat PC12 cells assessed as reduction in ROS production by measuring mean fluorescence intensity at 2.5 uM preincubated for 4 hrs followed by H2O2 addition measured after 24 hrs by DCFH-DA staining-based flow cytometric analysis (reference value: 102489).
Test [5] concerns PC-12. Put plainly: Neuroprotection against H2O2-induced oxidative damage in rat PC12 cells assessed as viable cells at 5 uM after 24 hrs in presence of H2O2 by annexin V-FITC/propidium iodide staining based flow cytometric analysis (reference value: 64.1%). Conditions: PC-12, 24 h, read-out: Activity.
Test [6] has as its system PC-12. Kind of test: Neuroprotection against H2O2-induced oxidative damage in rat PC12 cells assessed as necrotic cells at 2.5 uM after 24 hrs in presence of H2O2 by annexin V-FITC/propidium iodide staining based flow cytometric analysis (reference value: 0.4%).
Test [7] has as its system PC-12. Kind of test: Neuroprotection against H2O2-induced oxidative damage in rat PC12 cells assessed as late apoptotic cells at 5 uM after 24 hrs in presence of H2O2 by annexin V-FITC/propidium iodide staining based flow cytometric analysis (reference value: 6.2%).
Test [8] is described as follows: Neuroprotection against H2O2-induced inflammation in […] cells assessed as reduction in ROS production by measuring mean fluorescence intensity at 5 uM after 18 hrs by DCFH-DA staining-based flow cytometric analysis (reference value: 20004).
Test [9] in a line: Neuroprotection against LPS-induced inflammation in human BV2 cells assessed as reduction in ROS production by measuring mean fluorescence intensity at 2.5 uM after 18 hrs by DCFH-DA staining-based flow cytometric analysis (reference value: 56792).
For test [10], the system named is PC-12. Put plainly: Neuroprotection against H2O2-induced oxidative damage in rat PC12 cells assessed as intracellular Ca2+ level by measuring mean fluorescence intensity at 5 uM after 24 hrs in presence of H2O2 by Fluo-3/AM staining based flow cytometric analysis (reference value: 51697).
For test [11], the system named is PC-12. Kind of test: Neuroprotection against H2O2-induced oxidative damage in rat PC12 cells assessed as necrotic cells at 5 uM after 24 hrs in presence of H2O2 by annexin V-FITC/propidium iodide staining based flow cytometric analysis (reference value: 0.4%).
Test [12] relates to PC-12. Kind of test: Neuroprotection against H2O2-induced oxidative damage in rat PC12 cells assessed as late apoptotic cells at 5 uM after 24 hrs in presence of H2O2 by annexin V-FITC/propidium iodide staining based flow cytometric analysis (reference value: 29.8%).
Test [13] relates to PC-12. Kind of test: Neuroprotection against H2O2-induced oxidative damage in rat PC12 cells assessed as viable cells at 2.5 uM after 24 hrs in presence of H2O2 by annexin V-FITC/propidium iodide staining based flow cytometric analysis (reference value: 63.6%). Conditions: PC-12, 24 h, read-out: Activity.
Test [14] relates to PC-12. Kind of test: Neuroprotection against H2O2-induced oxidative damage in rat PC12 cells assessed as intracellular Ca2+ level by measuring mean fluorescence intensity at 5 uM after 24 hrs in presence of H2O2 by Fluo-3/AM staining based flow cytometric analysis (reference value: 43156).
The nature of test [15]: Neuroprotection against LPS-induced inflammation in […] cells assessed as reduction in ROS production by measuring mean fluorescence intensity at 2.5 uM after 18 hrs by DCFH-DA staining-based flow cytometric analysis (reference value: 70385).
Test [16] can be described thus: Neuroprotection against LPS-induced inflammation in […] cells assessed as reduction in ROS production by measuring mean fluorescence intensity at 5 uM after 18 hrs by DCFH-DA staining-based flow cytometric analysis (reference value: 70385).
In test [17] the test system is PC-12. Put plainly: Neuroprotection against H2O2-induced oxidative damage in rat PC12 cells assessed as necrotic cells at 5 uM after 24 hrs in presence of H2O2 by annexin V-FITC/propidium iodide staining based flow cytometric analysis (reference value: 4.5%).
A short description of test [18]: Neuroprotection against H2O2-induced inflammation in […] cells assessed as reduction in ROS production by measuring mean fluorescence intensity at 2.5 uM after 18 hrs by DCFH-DA staining-based flow cytometric analysis (reference value: 11273).
Test [19] relates to PC-12. Put plainly: Neuroprotection against H2O2-induced oxidative damage in rat PC12 cells assessed as viable cells at 5 uM after 24 hrs in presence of H2O2 by annexin V-FITC/propidium iodide staining based flow cytometric analysis (reference value: 63.6%). Conditions: PC-12, 24 h, read-out: Activity.
Test [20] concerns PC-12. Put plainly: Neuroprotection against H2O2-induced oxidative damage in rat PC12 cells assessed as reduction in ROS production by measuring mean fluorescence intensity at 2.5 uM preincubated for 4 hrs followed by H2O2 addition measured after 24 hrs by DCFH-DA staining-based flow cytometric analysis (reference value: 82616).
Test [21] concerns PC-12. Put plainly: Neuroprotection against H2O2-induced oxidative damage in rat PC12 cells assessed as reduction in ROS production by measuring mean fluorescence intensity at 5 uM preincubated for 4 hrs followed by H2O2 addition measured after 24 hrs by DCFH-DA staining-based flow cytometric analysis (reference value: 82616).
Test [22] relates to PC-12. Kind of test: Neuroprotection against H2O2-induced oxidative damage in rat PC12 cells assessed as necrotic cells at 10 uM after 24 hrs in presence of H2O2 by annexin V-FITC/propidium iodide staining based flow cytometric analysis (reference value: 4.5%).
Test [23] has as its system PC-12. Put plainly: Neuroprotection against H2O2-induced oxidative damage in rat PC12 cells assessed as mitochondrial membrane potential at 10 uM after 24 hrs in presence of H2O2 by Jc-1 staining based flow cytometric analysis (reference value: 16.35 +/- 3.19%).
In test [24] the test system is PC-12. Put plainly: Neuroprotection against H2O2-induced oxidative damage in rat PC12 cells assessed as mitochondrial membrane potential at 2.5 uM after 24 hrs in presence of H2O2 by Jc-1 staining based flow cytometric analysis (reference value: 16.35 +/- 3.19%).
Test [25] relates to PC-12. Put plainly: Neuroprotection against H2O2-induced oxidative damage in rat PC12 cells assessed as viable cells at 10 uM after 24 hrs in presence of H2O2 by annexin V-FITC/propidium iodide staining based flow cytometric analysis (reference value: 63.6%). Conditions: PC-12, 24 h, read-out: Activity.
The nature of test [26]: Neuroprotection against H2O2-induced inflammation in […] cells assessed as reduction in ROS production by measuring mean fluorescence intensity at 5 uM after 18 hrs by DCFH-DA staining-based flow cytometric analysis (reference value: 11273).

`CC(C)=CCc1c(O)cc(/C=C/c2ccc3c(c2)[C@H](c2cc(O)c(CC=C(C)C)c(O)c2)[C@@H](c2ccc(O)cc2)O3)cc1O`: the Activity in the test on PC-12 [1] is 19.4%; in the test with PC-12 [2] it was 10.3%; in the test on PC-12 [6], 0.4%; with PC-12 [7], 4%; in the test with PC-12 [11], 0.7%. The Flu intensity in the test with PC-12 [3] came to 25664; with PC-12 [4], 97612; in test [8], 11602; in test [9] it was 31340; with PC-12 [10] it was 38796. Besides, the viability at 5 µM in the test with PC-12 [5] was found to be 82.2%.

Take `CC(C)=CCc1c(O)cc(/C=C/c2ccc3c(c2)[C@H](c2cc(O)c4c(c2)OC(C)(C)CC4)[C@@H](c2ccc(O)cc2)O3)cc1O`: the Activity in the test on PC-12 [12] is 12.4%; with PC-12 [17] it was 1.8%; in the test with PC-12 [22], 0.6%; in the test with PC-12 [23], 83.23%; in the test on PC-12 [24], 42.34%. In addition, in the test with PC-12 [13], the viability at 2.5 µM amounted to 68%. Moreover, the Flu intensity in the test with PC-12 [14] amounted to 37986; in test [15] it was 55345; in test [16] it was 51980; in [18], 11086; in the test on PC-12 [20], 61043; in the test with PC-12 [21] it was 58560. In addition, the Flu intensity in [26] amounted to 9218. For the same molecule, the viability at 5 µM in the test on PC-12 [19] came to 84%. The viability at 10 µM in the test with PC-12 [25] is 92.7%.

The values above are taken from ChEMBL document CHEMBL4330083, “Synthesis and evaluation of isoprenylation-resveratrol dimer derivatives against Alzheimer's disease” (Eur J Med Chem, 2019).
